From ChEMBL document CHEMBL4507300 (2021)

Legend:
[1] = target: D(4) dopamine receptor (Homo sapiens) (UniProt P21917); conditions: Compound concentration 10.0 uM
[2] = target: Calcium/calmodulin-dependent protein kinase type II subunit alpha (Homo sapiens) (UniProt Q9UQM7); conditions: Compound concentration 1000.0 nM
[3] = target: SRSF protein kinase 2 (Homo sapiens) (UniProt P78362); conditions: Compound concentration 1000.0 nM
[4] = target: Serine/threonine-protein kinase LATS2 (Homo sapiens) (UniProt Q9NRM7); conditions: Compound concentration 1000.0 nM
[5] = system: Phosphatidylinositol 4,5-bisphosphate 3-kinase catalytic subunit alpha isoform (Homo sapiens), P42336 [E545A]; conditions: Compound concentration 1000.0 nM
[6] = target: Mitogen-activated protein kinase kinase kinase 5 (Homo sapiens) (UniProt Q99683); conditions: Compound concentration 1000.0 nM
[7] = target: Mast/stem cell growth factor receptor Kit (Homo sapiens) (UniProt P10721); conditions: Compound concentration 1000.0 nM
[8] = system: Tyrosine-protein kinase ABL1 (Homo sapiens), P00519 [T315I]; conditions: Compound concentration 1000.0 nM
[9] = target: Mitogen-activated protein kinase kinase kinase 12 (Homo sapiens) (UniProt Q12852); conditions: Compound concentration 1000.0 nM
[10] = system: Tyrosine-protein kinase ABL1 (Homo sapiens), P00519 [F317L]; conditions: Compound concentration 1000.0 nM
[11] = target: Mitogen-activated protein kinase kinase kinase kinase 1 (Homo sapiens) (UniProt Q92918); conditions: Compound concentration 1000.0 nM
[12] = target: Fibroblast growth factor receptor 2 (Homo sapiens) (UniProt P21802); conditions: Compound concentration 1000.0 nM
[13] = target: Serine/threonine-protein kinase 4 (Homo sapiens) (UniProt Q13043); conditions: Compound concentration 1000.0 nM
[14] = target: Serine/threonine-protein kinase mTOR (Homo sapiens) (UniProt P42345); conditions: Compound concentration 1000.0 nM
[15] = target: Cyclin-dependent kinase 16 (Homo sapiens) (UniProt Q00536); conditions: Compound concentration 1000.0 nM
[16] = target: Serine/threonine-protein kinase Nek11 (Homo sapiens) (UniProt Q8NG66); conditions: Compound concentration 1000.0 nM
[17] = target: GABA-A receptor; anion channel (Rattus norvegicus) (UniProt O09028+P15431+P18506+P18508+P19969+P20236+P23574+P23576+P28471+P28473+P30191+P62813+P63079+P63138+Q91ZM7+Q9ES14); conditions: Compound concentration 10.0 uM
[18] = target: Ribosomal protein S6 kinase alpha-5 (Homo sapiens) (UniProt O75582); conditions: Compound concentration 1000.0 nM
[19] = target: Protein kinase C theta type (Homo sapiens) (UniProt Q04759); conditions: Compound concentration 1000.0 nM
[20] = target: Ribosomal protein S6 kinase alpha-6 (Homo sapiens) (UniProt Q9UK32); conditions: Compound concentration 1000.0 nM
[21] = target: RAF proto-oncogene serine/threonine-protein kinase (Homo sapiens) (UniProt P04049); conditions: Compound concentration 1000.0 nM
[22] = target: Mitogen-activated protein kinase 9 (Homo sapiens) (UniProt P45984); conditions: Compound concentration 1000.0 nM
[23] = system: Tyrosine-protein kinase ABL1 (Homo sapiens), P00519 [M351T]; conditions: Compound concentration 1000.0 nM
[24] = target: Cyclin-dependent kinase 5 (Homo sapiens) (UniProt Q00535); conditions: Compound concentration 1000.0 nM
[25] = target: Muscle, skeletal receptor tyrosine-protein kinase (Homo sapiens) (UniProt O15146); conditions: Compound concentration 1000.0 nM
[26] = target: Ephrin type-B receptor 6 (Homo sapiens) (UniProt O15197); conditions: Compound concentration 1000.0 nM
[27] = target: Interleukin-1 receptor-associated kinase 3 (Homo sapiens) (UniProt Q9Y616); conditions: Compound concentration 1000.0 nM
[28] = target: Tyrosine-protein kinase receptor TYRO3 (Homo sapiens) (UniProt Q06418); conditions: Compound concentration 1000.0 nM
[29] = target: Ephrin type-B receptor 4 (Homo sapiens) (UniProt P54760); conditions: Compound concentration 1000.0 nM
[30] = target: Phosphatidylinositol 4-kinase beta (Homo sapiens) (UniProt Q9UBF8); conditions: Compound concentration 1000.0 nM
[31] = target: Tyrosine-protein kinase receptor Tie-1 (Homo sapiens) (UniProt P35590); conditions: Compound concentration 1000.0 nM
[32] = target: NT-3 growth factor receptor (Homo sapiens) (UniProt Q16288); conditions: Compound concentration 1000.0 nM
[33] = target: Protein kinase C epsilon type (Homo sapiens) (UniProt Q02156); conditions: Compound concentration 1000.0 nM
[34] = target: Calcium/calmodulin-dependent protein kinase type 1B (Homo sapiens) (UniProt Q6P2M8); conditions: Compound concentration 1000.0 nM
[35] = target: TGF-beta receptor type-2 (Homo sapiens) (UniProt P37173); conditions: Compound concentration 1000.0 nM
[36] = target: Uncharacterized serine/threonine-protein kinase SBK3 (Homo sapiens) (UniProt P0C264); conditions: Compound concentration 1000.0 nM
[37] = target: Receptor-interacting serine/threonine-protein kinase 1 (Homo sapiens) (UniProt Q13546); conditions: Compound concentration 1000.0 nM
[38] = target: Eukaryotic translation initiation factor 2-alpha kinase 1 (Homo sapiens) (UniProt Q9BQI3); conditions: Compound concentration 1000.0 nM
[39] = target: Insulin receptor (Homo sapiens) (UniProt P06213); conditions: Compound concentration 1000.0 nM
[40] = target: Proto-oncogene tyrosine-protein kinase receptor Ret (Homo sapiens) (UniProt P07949); conditions: Compound concentration 1000.0 nM
[41] = target: Casein kinase II subunit alpha' (Homo sapiens) (UniProt P19784); conditions: Compound concentration 1000.0 nM
[42] = target: Interferon-induced, double-stranded RNA-activated protein kinase (Homo sapiens) (UniProt P19525); conditions: Compound concentration 1000.0 nM
[43] = target: Dual specificity tyrosine-phosphorylation-regulated kinase 1A (Homo sapiens) (UniProt Q13627); conditions: Compound concentration 1000.0 nM
[44] = target: Ephrin type-A receptor 5 (Homo sapiens) (UniProt P54756); conditions: Compound concentration 1000.0 nM

Sequence of Serine/threonine-protein kinase 4 (Homo sapiens) (Q13043 whole entry): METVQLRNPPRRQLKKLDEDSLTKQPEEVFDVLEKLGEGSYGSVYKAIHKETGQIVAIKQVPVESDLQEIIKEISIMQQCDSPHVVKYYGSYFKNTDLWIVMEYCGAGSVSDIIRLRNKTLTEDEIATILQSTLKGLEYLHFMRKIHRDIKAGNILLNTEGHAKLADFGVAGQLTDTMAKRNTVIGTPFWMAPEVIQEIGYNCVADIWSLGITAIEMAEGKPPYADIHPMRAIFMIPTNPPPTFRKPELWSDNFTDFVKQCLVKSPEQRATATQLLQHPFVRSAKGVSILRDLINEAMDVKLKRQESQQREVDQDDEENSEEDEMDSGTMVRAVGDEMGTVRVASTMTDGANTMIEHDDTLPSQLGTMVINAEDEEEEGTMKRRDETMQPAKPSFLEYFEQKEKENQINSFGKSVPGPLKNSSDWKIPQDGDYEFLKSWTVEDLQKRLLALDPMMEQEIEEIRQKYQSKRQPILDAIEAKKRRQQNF
Sequence of Calcium/calmodulin-dependent protein kinase type II subunit alpha (Homo sapiens) (Q9UQM7 whole entry): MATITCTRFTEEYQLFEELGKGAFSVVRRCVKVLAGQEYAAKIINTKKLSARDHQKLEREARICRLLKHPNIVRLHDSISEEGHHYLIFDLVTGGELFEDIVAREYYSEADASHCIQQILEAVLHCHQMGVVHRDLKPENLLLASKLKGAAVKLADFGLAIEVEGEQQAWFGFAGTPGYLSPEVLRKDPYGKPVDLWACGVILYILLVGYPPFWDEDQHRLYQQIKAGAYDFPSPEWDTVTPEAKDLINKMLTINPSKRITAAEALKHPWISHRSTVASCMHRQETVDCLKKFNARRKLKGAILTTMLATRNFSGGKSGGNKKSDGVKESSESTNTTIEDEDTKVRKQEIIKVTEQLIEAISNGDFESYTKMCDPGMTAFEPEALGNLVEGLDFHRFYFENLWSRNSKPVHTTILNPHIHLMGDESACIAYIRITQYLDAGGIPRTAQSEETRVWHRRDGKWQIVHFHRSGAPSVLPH
Sequence of Muscle, skeletal receptor tyrosine-protein kinase (Homo sapiens) (O15146 whole entry): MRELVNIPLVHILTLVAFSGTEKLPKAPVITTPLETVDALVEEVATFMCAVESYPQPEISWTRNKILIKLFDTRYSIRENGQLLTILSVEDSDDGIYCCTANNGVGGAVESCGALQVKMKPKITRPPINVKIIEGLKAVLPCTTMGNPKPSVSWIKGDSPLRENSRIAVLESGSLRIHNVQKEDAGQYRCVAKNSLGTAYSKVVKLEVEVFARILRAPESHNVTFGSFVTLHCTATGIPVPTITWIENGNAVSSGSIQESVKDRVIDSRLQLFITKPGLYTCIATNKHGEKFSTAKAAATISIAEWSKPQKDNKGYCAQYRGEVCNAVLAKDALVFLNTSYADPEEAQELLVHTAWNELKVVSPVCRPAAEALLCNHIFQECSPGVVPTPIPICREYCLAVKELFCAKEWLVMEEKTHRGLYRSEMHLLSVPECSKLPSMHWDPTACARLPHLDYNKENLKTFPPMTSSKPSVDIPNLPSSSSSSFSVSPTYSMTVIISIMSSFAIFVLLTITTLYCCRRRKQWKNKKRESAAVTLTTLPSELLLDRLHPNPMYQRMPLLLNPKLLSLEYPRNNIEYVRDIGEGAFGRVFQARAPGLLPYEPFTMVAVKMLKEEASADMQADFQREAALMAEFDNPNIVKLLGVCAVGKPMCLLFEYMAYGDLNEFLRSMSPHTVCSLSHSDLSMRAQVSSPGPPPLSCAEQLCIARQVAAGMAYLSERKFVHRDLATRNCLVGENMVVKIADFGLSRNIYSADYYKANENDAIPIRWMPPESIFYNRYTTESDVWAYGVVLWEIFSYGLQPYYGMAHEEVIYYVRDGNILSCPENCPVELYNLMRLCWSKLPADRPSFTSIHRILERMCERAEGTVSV
Sequence of Mitogen-activated protein kinase kinase kinase 12 (Homo sapiens) (Q12852 whole entry): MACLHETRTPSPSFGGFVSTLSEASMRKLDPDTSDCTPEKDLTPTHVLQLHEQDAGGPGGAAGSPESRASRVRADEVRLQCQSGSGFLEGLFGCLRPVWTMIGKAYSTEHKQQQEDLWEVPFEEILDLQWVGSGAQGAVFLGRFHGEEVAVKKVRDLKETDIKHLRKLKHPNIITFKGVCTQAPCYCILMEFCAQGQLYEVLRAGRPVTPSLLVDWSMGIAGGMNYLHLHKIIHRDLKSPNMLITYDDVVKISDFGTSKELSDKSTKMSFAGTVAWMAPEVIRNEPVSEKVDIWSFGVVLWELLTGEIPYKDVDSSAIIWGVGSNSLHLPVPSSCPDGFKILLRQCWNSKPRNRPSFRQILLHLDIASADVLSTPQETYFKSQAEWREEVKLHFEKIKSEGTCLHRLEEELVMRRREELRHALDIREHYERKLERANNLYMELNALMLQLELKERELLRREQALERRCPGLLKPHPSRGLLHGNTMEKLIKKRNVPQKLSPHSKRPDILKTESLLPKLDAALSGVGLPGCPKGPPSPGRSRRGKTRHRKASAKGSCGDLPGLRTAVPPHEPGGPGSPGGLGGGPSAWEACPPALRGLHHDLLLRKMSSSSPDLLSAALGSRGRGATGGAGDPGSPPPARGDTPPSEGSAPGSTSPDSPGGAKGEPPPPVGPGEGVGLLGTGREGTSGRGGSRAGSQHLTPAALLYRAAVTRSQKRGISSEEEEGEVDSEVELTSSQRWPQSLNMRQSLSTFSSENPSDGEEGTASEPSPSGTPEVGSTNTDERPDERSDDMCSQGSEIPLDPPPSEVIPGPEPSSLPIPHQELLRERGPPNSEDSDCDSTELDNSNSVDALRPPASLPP
Sequence of Ribosomal protein S6 kinase alpha-6 (Homo sapiens) (Q9UK32 whole entry): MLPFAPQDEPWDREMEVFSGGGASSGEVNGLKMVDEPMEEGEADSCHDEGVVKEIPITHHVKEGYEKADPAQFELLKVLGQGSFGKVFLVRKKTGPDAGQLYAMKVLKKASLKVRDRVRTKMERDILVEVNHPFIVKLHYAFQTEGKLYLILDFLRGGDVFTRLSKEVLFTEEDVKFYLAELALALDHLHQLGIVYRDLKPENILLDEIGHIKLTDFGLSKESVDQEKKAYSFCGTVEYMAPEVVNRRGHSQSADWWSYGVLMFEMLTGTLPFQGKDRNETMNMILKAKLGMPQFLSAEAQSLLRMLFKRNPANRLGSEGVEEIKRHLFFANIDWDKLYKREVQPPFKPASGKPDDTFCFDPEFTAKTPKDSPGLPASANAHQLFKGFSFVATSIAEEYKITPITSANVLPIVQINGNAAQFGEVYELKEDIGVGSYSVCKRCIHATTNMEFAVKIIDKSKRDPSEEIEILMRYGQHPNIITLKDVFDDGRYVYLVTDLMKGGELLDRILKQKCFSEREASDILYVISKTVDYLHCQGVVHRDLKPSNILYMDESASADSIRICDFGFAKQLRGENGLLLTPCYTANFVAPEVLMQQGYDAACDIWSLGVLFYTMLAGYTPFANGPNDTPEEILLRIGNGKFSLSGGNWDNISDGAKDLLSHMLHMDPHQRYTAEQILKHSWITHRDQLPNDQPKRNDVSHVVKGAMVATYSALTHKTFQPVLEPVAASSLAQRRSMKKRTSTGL
Sequence of Ephrin type-B receptor 6 (Homo sapiens) (O15197 whole entry): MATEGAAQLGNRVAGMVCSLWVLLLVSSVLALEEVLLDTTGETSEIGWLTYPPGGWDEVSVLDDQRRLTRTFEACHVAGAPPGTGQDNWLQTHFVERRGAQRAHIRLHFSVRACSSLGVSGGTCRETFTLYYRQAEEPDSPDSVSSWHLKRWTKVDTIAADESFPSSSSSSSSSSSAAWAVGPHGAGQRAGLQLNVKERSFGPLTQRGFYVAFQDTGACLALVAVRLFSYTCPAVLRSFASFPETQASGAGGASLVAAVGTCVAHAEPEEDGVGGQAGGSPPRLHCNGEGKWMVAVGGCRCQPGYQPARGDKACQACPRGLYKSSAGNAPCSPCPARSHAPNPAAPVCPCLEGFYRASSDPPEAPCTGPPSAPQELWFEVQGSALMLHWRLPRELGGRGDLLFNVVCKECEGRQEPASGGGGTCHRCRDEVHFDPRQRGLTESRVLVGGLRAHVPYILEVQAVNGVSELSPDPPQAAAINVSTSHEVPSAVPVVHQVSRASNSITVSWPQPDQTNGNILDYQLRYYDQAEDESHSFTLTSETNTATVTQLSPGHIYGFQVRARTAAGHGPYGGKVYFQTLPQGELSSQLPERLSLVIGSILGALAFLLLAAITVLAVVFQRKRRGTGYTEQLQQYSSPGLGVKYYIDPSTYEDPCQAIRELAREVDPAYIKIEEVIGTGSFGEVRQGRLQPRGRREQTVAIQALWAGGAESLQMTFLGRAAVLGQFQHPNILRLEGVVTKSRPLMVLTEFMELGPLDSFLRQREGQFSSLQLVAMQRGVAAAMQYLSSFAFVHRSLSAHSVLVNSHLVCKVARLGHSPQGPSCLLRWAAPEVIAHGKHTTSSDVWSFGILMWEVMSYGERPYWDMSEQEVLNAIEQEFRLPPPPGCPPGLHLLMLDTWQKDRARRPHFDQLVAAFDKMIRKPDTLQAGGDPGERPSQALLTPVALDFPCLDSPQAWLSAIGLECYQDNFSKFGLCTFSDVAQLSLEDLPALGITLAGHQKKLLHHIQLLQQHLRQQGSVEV
Sequence of Cyclin-dependent kinase 5 (Homo sapiens) (Q00535 whole entry, looked up): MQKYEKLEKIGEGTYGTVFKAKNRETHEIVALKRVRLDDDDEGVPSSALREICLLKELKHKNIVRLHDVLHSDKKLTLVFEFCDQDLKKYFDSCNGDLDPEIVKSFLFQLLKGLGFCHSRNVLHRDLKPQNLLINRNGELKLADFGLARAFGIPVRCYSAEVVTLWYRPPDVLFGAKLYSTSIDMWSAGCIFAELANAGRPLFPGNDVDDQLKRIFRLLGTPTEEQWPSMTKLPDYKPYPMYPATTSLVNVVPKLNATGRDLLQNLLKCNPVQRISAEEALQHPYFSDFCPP

COc1cccc(CNC(=O)c2nc3scc(COCc4ccc(C(=O)O)cc4)c3c(=O)[nH]2)c1 [T-26c]
inactive: inhibition [1] 13.9% | residual activity [2] 92.5% | residual activity [3] 100% | residual activity [4] 86.2% | residual activity [5] 89.2% | residual activity [6] 97.8% | residual activity [7] 93% | residual activity [8] 92% | residual activity [9] 58.2% | residual activity [10] 78.7% | residual activity [11] 100% | residual activity [12] 100% | residual activity [13] 75% | residual activity [14] 100% | residual activity [15] 91.9% | residual activity [16] 65.6% | inhibition [17] 19% | residual activity [18] 93.1% | residual activity [19] 100% | residual activity [20] 100% | residual activity [21] 85.6% | residual activity [22] 97.1% | residual activity [23] 84.4% | residual activity [24] 95.7% | residual activity [25] 100% | residual activity [26] 100% | residual activity [27] 97.5% | residual activity [28] 100% | residual activity [29] 89.4% | residual activity [30] 59.9% | residual activity [31] 100% | residual activity [32] 76.3% | residual activity [33] 62% | residual activity [34] 70.7% | residual activity [35] 97% | residual activity [36] 100% | residual activity [37] 97.4% | residual activity [38] 88% | residual activity [39] 76.2% | residual activity [40] 72.3% | residual activity [41] 79.4% | residual activity [42] 97.7% | residual activity [43] 89.5% | residual activity [44] 98.5%
